Experimental data: patent publication US5496947A, “Quinolone carboxylic acid derivatives” (Dong Wha Pharmaceutical Industrial Co., Ltd., priority 1994, dated 1996)
Like-named read-outs stand apart in the source and are kept apart here.

Columns and labels:
[1] = test system: Streptococcus faecalis ATCC 19433; test: MIC, 2-fold dilution method in micro-well plate, S. faecalis ATCC 19433; assay type: cell-based; conditions: Enterococcus faecalis; S. faecalis ATCC19433, 37° C.; read-out: Minimum Inhibitory Concentration
Description: (§1) The in vitro antibiotic activity of the present compound is measured using 2-fold dilution method with a micro-well plate and the bacteria are inoculated in about 10^5 cfu/ml after an overnight culture in a brain-heart infusion (BHI) broth at 37° C. The novel compounds of the present invention are converted to a hydrochloride salt form and diluted with a sterilized distilled water to make 10 mg/ml aqueous solution. After the mother liquor wherein the compound is diluted to the two-fold concentration has been obtained in the form of an aqueous solution, the respective 0.1 ml of diluted liquor is transferred to a well and is inoculated with 0.1 ml of the culture fluid to make about (10^5 -10^6)/2 cfu/ml.
(§2) After cultivation at 37° C., the minimum inhibitory concentration (MIC) is measured and recorded in Table I-V.
(§3) Table I-V show the minimum inhibitory concentrations (MIC).
Streptococcus faecalis ATCC 19433

[2] = test system: Enterobacter aerogenes ATCC 13048; test: MIC, 2-fold dilution method in micro-well plate, E. aerogenes; assay type: cell-based; conditions: Klebsiella aerogenes
Description: as §1, §2, §3
Enterobacter aerogenes ATCC 13048

[3] = test system: Citrobacter freundii ATCC 8090; test: MIC, 2-fold dilution method in micro-well plate, C. freundii; assay type: cell-based
Description: as §1, §2, §3
Citrobacter freundii ATCC 8090

[4] = test system: Serratia marcescens ATCC 8100; test: MIC, 2-fold dilution method in micro-well plate, S. marcescens; assay type: cell-based
Description: as §1, §2, §3
Serratia marcescens ATCC 8100

[5] = test system: Haemophilus influenza ATCC 35056; test: MIC, 2-fold dilution method in micro-well plate, H. influenzae; assay type: cell-based; conditions: H. influenzae ATCC35056, 37° C.; read-out: Minimum Inhibitory Concentration
Description: as §1, §2, §3
Haemophilus influenza ATCC 35056

[6] = test system: Proteus vulgaris ATCC 13315; test: MIC, 2-fold dilution method in micro-well plate, P. vulgaris; assay type: cell-based
Description: as §1, §2, §3
Proteus vulgaris ATCC 13315

[7] = test system: Escherichia coli ATCC 25922; test: MIC, 2-fold dilution method in micro-well plate, E. coli; assay type: cell-based
Description: as §1, §2, §3
Escherichia coli ATCC 25922

[8] = test system: Enterobacter cloacae; test: MIC, 2-fold dilution method in micro-well plate, E. cloacae; assay type: cell-based; conditions: read-out: Minimum Inhibitory Concentration
Description: as §1, §2, §3
Enterobacter cloacae ATCC 23355

[9] = test system: Acinetobacter calcoaceticus; test: MIC, 2-fold dilution method in micro-well plate, A. calcoaceticus; assay type: cell-based; conditions: A. calcoaceticus ATCC8090 (as in tables), 37° C., read-out: Minimum Inhibitory Concentration
Description: as §1, §2
Table I-V show the minimum inhibitory concentrations (MIC). […]

[10] = Pharmacokinetic properties in ICR mouse, oral and subcutaneous, Bio-Assay (Agar well method); assay type: in vivo; conditions: 40 mg/kg, average of four tests; for AUC / Cmax / Tmax / bioavailability / half-life: blood; for dose excreted: urine, read-out: Urine Recovery
Description: The pharmacokinetic properties are tested by orally administrating and subcutaneously injecting a test compound and a substance for control to a ICR Mouse with 22 g±10% weight, drawing blood after 10, 20, 30, 45, 60, 90, 120, 150, 180 and […] and analyzed by Bio-Assay (Agar well method).

[11] = test system: Salmonella typhimurium ATCC 14028; test: MIC, 2-fold dilution method in micro-well plate, S. typhimurium; assay type: cell-based; conditions: Salmonella enterica, read-out: Minimum Inhibitory Concentration
Description: as §1, §2, §3
Salmonella typhimurium ATCC 14028

[12] = test system: Pseudomonas aeruginosa ATCC 27853; test: MIC, 2-fold dilution method in micro-well plate, P. aeruginosa; assay type: cell-based; conditions: P. aerugirnosa ATCC27853, 37° C., read-out: Minimum Inhibitory Concentration
Description: as §1, §2, §3
Pseudomonas aeruginosa ATCC 27853

[13] = test system: Shigella sonnei ATCC 25931; test: MIC, 2-fold dilution method in micro-well plate, S. sonnei; assay type: cell-based; conditions: S. sonnei ATCC25931, 37° C., read-out: Minimum Inhibitory Concentration
Description: as §1, §2, §3
Shigella sonnei ATCC 25931

[14] = test system: Streptococcus pyrogens ATCC 19615; test: MIC, 2-fold dilution method in micro-well plate, S. pyrogens; assay type: cell-based; conditions: S. pyrogenes ATCC19615, 37° C., read-out: Minimum Inhibitory Concentration
Description: as §1, §2, §3
Streptococcus pyrogens ATCC 19615

[15] = test system: Streptococcus pneumoniae ATCC 6303; test: MIC, 2-fold dilution method in micro-well plate, S. pneumoniae; assay type: cell-based; conditions: S. pneuinoniae ATCC6303, 37° C., read-out: Minimum Inhibitory Concentration
Description: as §1, §2, §3
Streptococcus pneumoniae ATCC 6303

[16] = test system: Shigella flexneri ATCC 12022; test: MIC, 2-fold dilution method in micro-well plate, S. flexneri; assay type: cell-based; conditions: S. flexneri ATCC12022, 37° C., read-out: Minimum Inhibitory Concentration
Description: as §1, §2, §3
Shigella flexneri ATCC 12022

[17] = test system: Streptococcus faecalis ATCC 29212; test: MIC, 2-fold dilution method in micro-well plate, S. faecalis ATCC 29212; assay type: cell-based; conditions: Enterococcus faecalis; S. faecalis ATCC29212, 37° C.; read-out: Minimum Inhibitory Concentration
Description: as §1, §2, §3
Streptococcus faecalis ATCC 29212

[18] = test system: Klebsiella pneumoniae ATCC 13883; test: MIC, 2-fold dilution method in micro-well plate, K. pneumoniae; assay type: cell-based
Description: as §1, §2, §3
Klebsiella pneumoniae ATCC 13883

[19] = ATCC13048, read-out: Minimum Inhibitory Concentration
[20] = C. freundii ATCC8090, 37° C., read-out: Minimum Inhibitory Concentration
[21] = S. marcescens ATCC8100, 37° C., read-out: Minimum Inhibitory Concentration
[22] = P. vulgaris ATCC13315, 37° C., read-out: Minimum Inhibitory Concentration
[23] = E. coli ATCC25922, 37° C., read-out: Minimum Inhibitory Concentration
[24] = E. cloacae ATCC23355 (as in tables), 37° C.
[25] = ATCC8100, read-out: Minimum Inhibitory Concentration
[26] = K. pneumoniae ATCC13883, 37° C., read-out: Minimum Inhibitory Concentration

Structure (SMILES)	MIC [1] [µg/mL]	MIC [2, 19] [µg/mL]	MIC [3, 20] [µg/mL]	MIC [4, 21] [µg/mL]	MIC [5] [µg/mL]	MIC [6, 22] [µg/mL]	MIC [7, 23] [µg/mL]	MIC [8, 24] [µg/mL]	MIC [9] [µg/mL]	AUC ([10]; po, P.O) [ng·h/mL]	Cmax ([10]; po, P.O) [ng/mL]	Tmax ([10]; po, P.O) [h]	MIC [11] [µg/mL]	MIC [12] [µg/mL]	MIC [13] [µg/mL]	MIC [14] [µg/mL]	MIC [15] [µg/mL]	MIC [16] [µg/mL]	MIC [17] [µg/mL]	MIC [18, 26] [µg/mL]	other results
CC1CN(c2nc3c(cc2F)c(=O)c(C(=O)O)cn3-c2ccc(F)cn2)CCN1.Cl (stereo not drawn) [Example 14, 1-(5-fluoro-2-pyridyl)-6-fluoro-7-(3-methyl-1-piperazinyl)-1,4-dihydro-4-oxo-1,8-naphthyridine-3-carboxylic acid hydrochloride]	5	1.25	0.625	0.313	1.25	0.625	0.313	0.625	0.625	12500	2120	0.87	1.25	1.25	0.078	10	5	0.156	2.5		bioavailability ([10]; po, P.O): 44%; half-life ([10]; po, P.O): 3.81 h; AUC ([10]; sc, S.C): 28100 ng·h/mL; Cmax ([10]; sc, S.C): 4280 ng/mL; Tmax ([10]; sc, S.C): 0.6 h; half-life ([10]; sc, S.C): 7.28 h; dose excreted ([10]; po, P.O): 58.9%; dose excreted ([10]; sc, S.C): 21.1%; MIC ([18]; ATCC13883, read-out: Minimum Inhibitory Concentration): 1.25 µg/mL
CC1CN(c2cc3c(cc2F)c(=O)c(C(=O)O)cn3-c2ccc(F)cn2)CCN1.Cl (stereo not drawn) [Example 19, 1-(5-fluoro-2-pyridyl)-6-fluoro-7-(3-methyl-1-piperazinyl)-1,4-dihydro-4-oxoquinoline-3-carboxylic acid hydrochloride]	5	0.625	1.25		0.625	0.156	0.078		1.25	16900	3110	0.87	0.313	0.625	0.313	10	5	0.313	5	1.25	MIC [4, 25]: 0.625 µg/mL; MIC [8]: 0.625 µg/mL; bioavailability ([10]; po, P.O): 72.7%; half-life ([10]; po, P.O): 8.42 h; AUC ([10]; sc, S.C): 23300 ng·h/mL; Cmax ([10]; sc, S.C): 5110 ng/mL; Tmax ([10]; sc, S.C): 0.87 h; half-life ([10]; sc, S.C): 5.32 h; dose excreted ([10]; po, P.O): 29%; dose excreted ([10]; sc, S.C): 48.7%
Cl.N[C@H]1CCN(c2cc3c(cc2F)c(=O)c(C(=O)O)cn3-c2ccc(F)cn2)C1 [Example 22, 1-(5-fluoro-2-pyridyl)-6-fluoro-7-[(3S)-3-amino-1-pyrrolidinyl]-1,4-dihydro-4-oxoquinoline-3-carboxylic acid hydrochloride]	0.625		0.039	0.078	0.078	0.078	0.039	0.078	0.313					0.156	0.039	2.5	1.25	0.156	1.25	0.039	MIC ([2]; E. aerogenes ATCC13048, 37° C., read-out: Minimum Inhibitory Concentration): 0.078 µg/mL; MIC ([11]; S. typhisurium ATCC14028, 37° C.): 0.078 µg/mL
Cl.O=C(O)c1cn(-c2ccc(F)cn2)c2c(F)c(N3CCNCC3)c(F)cc2c1=O [Example 23, 1-(5-fluoro-2-pyridyl)-6,8-difluoro-7-(1-piperazinyl)-1,4-dihydro-4-oxoquinoline-3-carboxylic acid hydrochloride]	5	0.625			0.625				1.25				0.313	1.25	0.078	5	2.5	0.313	5	1.25	MIC ([3]; ATCC8090, read-out: Minimum Inhibitory Concentration): 0.625 µg/mL; MIC [4, 25]: 0.625 µg/mL; MIC ([6]; ATCC13315, read-out: Minimum Inhibitory Concentration): 0.313 µg/mL; MIC ([7]; ATCC25922, read-out: Minimum Inhibitory Concentration): 0.625 µg/mL; MIC [8]: 0.625 µg/mL
